# Reference: patent US20260049072A1, “HETEROCYCLIC COMPOUND FOR INDUCING DEGRADATION OF MUTANT KRAS PROTEIN” (Astellas Pharma Inc., priority 2022, published 2026)
# Assays:
# Assay type in all cases: cell-based
# [1] = tested on: phosphorylation of ERK (Thr202/Tyr204); assay: ERK phosphorylation inhibitory activity, cell ELISA, PA-TU-8902; conditions: Homo sapiens, PaTu 8902; PA-TU-8902 cells, 24 hours, 100% = 300 nM trametinib; read-out: IC50 (ERK phosphorylation inhibition)
# Description: Test Example 2: Evaluation of ERK Phosphorylation Inhibitory Activity on Human KRAS G12V Mutant-Positive Pancreatic Cancer Line PA-TU-8902
# The ERK phosphorylation inhibitory activities of subject compounds were evaluated by measuring phosphorylation of the 202th threonine (Thr202) and the 204th tyrosine (Tyr204) of ERK located downstream of the KRAS signal by cell ELISA.
# PA-TU-8902 cells were seeded at 36 µL/well on a 384-well plate (from Greiner bio-one) to give 5.0×10^3 cells per well. The cell culture conditions were the same conditions as in Test Example 1-1.
# The next day, the subject compounds (9 points having final concentrations in the range of 3 μM to 0.3 nM), trametinib (MEK inhibitor) of a final concentration of 300 nM as a positive control and DMSO, which was the solvent for the subject compounds, as a negative control were diluted 100-fold with a fresh medium and were each added at 4 μL per well, followed by culturing for 24 hours. After culturing, a 30% glyoxal solution (40% glyoxal [from Nacalai Tesque] was diluted with PBS) was quickly added at 30 μL per well, and the plate was allowed to stand for an hour and 30 minutes at room temperature to thus immobilize the cells. Then, the plate was centrifuged (110×g, seven seconds, hereinafter centrifugation was performed under the same conditions unless otherwise specified) to remove the supernatant, and 0.1% Triton X-100-containing PBS was added at 20 μL per well. After allowing the plate to stand for 10 minutes at room temperature, the supernatant was removed by centrifugation, and the same operation was further repeated. Next, 0.5% SDS-containing PBS was added at 20 μL per well. The plate was allowed to stand at room temperature for 30 minutes and was then centrifuged to remove the supernatant. Subsequently, a blocking solution (Intercept Blocking Buffer) was added at 20 μL per well, and the plate was allowed to stand for an hour at room temperature. The supernatant was removed by centrifugation, and an ERK (Thr202/Tyr204) phosphorylation antibody (Phospho-p44/42 MAPK (Erk 1/2) (Thr202/Tyr204) (D13.14.4E) XP Rabbit mAb; from Cell Signaling Technology) diluted 2,500-fold with the blocking solution was added at 15 μL per well as a primary antibody. The plate was allowed to stand at 4° C. overnight.
# The next day, the plate was centrifuged to remove the supernatant, and 0.05% Tween-20-containing PBS (from Thermo Scientific; 20×PBS Tween-20 was diluted 20-fold with ion exchange water and used) was added at 50 μL per well. The supernatant was removed by centrifugation to thus wash each well. The washing was performed three times in total. After washing, an anti-rabbit IgG antibody diluted 1,000-fold with the blocking solution was added at 15 μL per well as a secondary antibody, and the plate was allowed to stand for an hour at room temperature. The plate was centrifuged to remove the supernatant, and each well was washed three times with 0.05% Tween-20-containing PBS in the same manner as after the primary antibody reaction. Centrifugation after the third washing was performed at 171×g for 17 seconds. After removing the supernatant, the plate was dried as it was with air at room temperature for three hours or more, and the 800-nm fluorescent signals were measured with Aerius.
# With the signaling value at the time of addition of DMSO taken as 0% inhibition and with the signaling value at the time of addition of 300 nM trametinib taken as 100% inhibition, the 50% inhibition values (IC50) were calculated by Sigmoid-Emax model nonlinear regression analysis.
# AsPC-1 cells = assay: Non-anchorage-dependent cell growth inhibition (spheroid 3D culture), AsPC-1; conditions: Homo sapiens, ASPC1, 144 h; KRAS G12D mutant-positive, 3D spheroid, six days, CellTiter-Glo 2.0; read-out: AsPC-1 IC50
# Description: (§1) Test Example 3: Evaluation of Non-Anchorage-Dependent Cell Growth Inhibitory Activity on Human KRAS G12V Mutant-Positive Pancreatic Cancer Line PA-TU-8902, Human KRAS G12D Mutant-Positive Pancreatic Cancer Line AsPC-1 or Human KRAS G12C Mutant-Positive Pancreatic Cancer Line MIA PaCa-2
# (§2) The non-anchorage-dependent cell growth inhibitory activities of subject compounds were evaluated by spheroid 3D cell culture.
# (§3) PA-TU-8902 cells, AsPC-1 cells or MIA PaCa-2 cells (RIKEN BRC, RCB2094) were seeded at 36 µL/well on a low-cell-adhesive round bottom 384-well plate (Prime Surface: from Sumitomo Bakelite) to give 5×10^2 cells per well. The PA-TU-8902 cells were under the same conditions as in Test Example 1-1, and the AsPC-1 cells were under the same conditions as in Test Example 1-2. For the MIA PaCa-2 cells, RPMI-1640 medium containing 10% fetal bovine serum was used in the presence of 5% CO2 at 37° C.
# (§4) The next day, the subject compounds (6-9 points having final concentrations in the range of 3 μM to 0.3 nM) and DMSO, which was the solvent for the subject compounds, as a negative control were diluted 100-fold with a fresh medium and were each added at 4 μL per well. After culturing in the presence of 5% CO2 at 37° C. for six days, CellTiter-Glo 2.0 (from Promega) was added at 20 μL per well. After stirring with a plate mixer (from FINEPCR) at normal temperature for an hour, the luminescent signals were measured with ARVO X3 (from PerkinElmer).
# (§5) With the signaling value in treatment with DMSO taken as 0% inhibition and with the signaling value in the medium alone without cells taken as 100% inhibition, the 50% inhibition values (IC50) were calculated by Sigmoid-Emax model nonlinear regression analysis.
# MIA PaCa-2 cells = assay: Non-anchorage-dependent cell growth inhibition (spheroid 3D culture), MIA PaCa-2; conditions: Homo sapiens, MIA PaCa-2, 144 h; KRAS G12C mutant-positive, 3D spheroid, six days, CellTiter-Glo 2.0; read-out: MIA PaCa-2 IC50
# Description: as §1, §2, §3, §4, §5
Compound,IC50 [1] [nM],IC50 (AsPC-1 cells) [nM],IC50 (MIA PaCa-2 cells) [nM]
"CO[C@@H](C)COc1nc(NC2CN(C(=O)O[C@H]3C[C@@H](N(C)C)C3)C2)c2cc(C3CC3)c(-c3c(C)c(F)cc4[nH]ncc34)c(OCc3ccc(-c4cn([C@H](C(=O)N5C[C@H](O)C[C@H]5C(=O)N[C@@H](CO)c5ccc(-n6cncn6)cc5)C(C)C)nn4)cc3)c2n1 (atropisomer, axis not shown; (M)) [Example 2, (1s,3R)-3-(dimethylamino)cyclobutyl 3-({(7M)-6-cyclopropyl-7-(6-fluoro-5-methyl-1H-indazol-4-yl)-8-{[4-(1-{(2S)-1-[(2S,4R)-4-hydroxy-2({(1R)-2-hydroxy-1-[4-(1H-1,2,4-triazol-1-yl)phenyl]ethyl}carbamoyl)pyrrolidin-1-yl]-3-methyl-1-oxobutan-2-yl}-1H-1,2,3-triazol-4-yl)phenyl]methoxy}-2-[(2S)-2-methoxypropoxy]quinazolin-4-yl}amino)azetidine-1-carboxylate]",16,11,12
"CO[C@@H](C)COc1cc(OC2CN(C(=O)N3CC(CN(C)C)C3)C2)c2cc(C3CC3)c(-c3c(C)c(F)cc4[nH]ncc34)c(OCc3ccc(-c4cn([C@H](C(=O)N5C[C@H](O)C[C@H]5C(=O)N[C@@H](CO)c5ccc(-n6cncn6)cc5)C(C)C)nn4)cc3)c2n1 (atropisomer, axis not shown; (M)) [Example 5, (4R)-1-[(2S)-2-(4-{4-[({(7M)-6-cyclopropyl-4-[(1-{3-[(dimethylamino)methyl]azetidine-1-carbonyl}azetidin-3-yl)oxy]-7-(6-fluoro-5-methyl-1H-indazol-4-yl)-2-[(2S)-2-methoxypropoxy]quinolin-8-yl}oxy)methyl]phenyl}-1H-1,2,3-triazol-1-yl)-3-methylbutanoyl]-4-hydroxy-N-{(1R)-2-hydroxy-1-[4-(1H-1,2,4-triazol-1-yl)phenyl]ethyl}-L-prolinamide]",8,8,5
"CO[C@@H](C)COc1cc(OC2CN(C(=O)N3CC(CN(C)C)C3)C2)c2cc(C3CC3)c(-c3c(C)c(F)cc4[nH]ncc34)c(OCc3ccc(-c4cn([C@H](C(=O)N5C[C@H](O)C[C@H]5C(=O)N[C@@H](CO)c5ccc(-c6ocnc6C)cc5)C(C)C)nn4)cc3)c2n1 (atropisomer, axis not shown; (M)) [Example 6, (4R)-1-[(2S)-2-(4-{4-[({(7M)-6-cyclopropyl-4-[(1-{3-[(dimethylamino)methyl]azetidine-1-carbonyl}azetidin-3-yl)oxy]-7-(6-fluoro-5-methyl-1H-indazol-4-yl)-2-[(2S)-2-methoxypropoxy]quinolin-8-yl}oxy)methyl]phenyl}-1H-1,2,3-triazol-1-yl)-3-methylbutanoyl]-4-hydroxy-N-{(1R)-2-hydroxy-1-[4-(4-methyl-1,3-oxazol-5-yl)phenyl]ethyl}-L-prolinamide]",7,14,7
"CO[C@@H](C)COc1nc(NC2CN(C(=O)O[C@H]3C[C@@H](N(C)C)C3)C2)c2cc(C3CC3)c(-c3c(C)c(F)cc4[nH]ncc34)c(OCc3ccc(-c4cn([C@H](C(=O)N5C[C@H](O)C[C@H]5C(=O)N[C@@H](CO)c5ccc(-c6scnc6C)cc5)C(C)C)nn4)cc3)c2n1 (atropisomer, axis not shown; (M)) [Example 11, (1s,3R)-3-(dimethylamino)cyclobutyl 3-({(7M)-6-cyclopropyl-7-(6-fluoro-5-methyl-1H-indazol-4-yl)-8-{[4-(1-{(2S)-1-[(2S,4R)-4-hydroxy-2-({(1R)-2-hydroxy-1-[4-(4-methyl-1,3-thiazol-5-yl)phenyl]ethyl}carbamoyl)pyrrolidin-1-yl]-3-methyl-1-oxobutan-2-yl}-1H-1,2,3-triazol-4-yl)phenyl]methoxy}-2-[(2S)-2-methoxypropoxy]quinazolin-4-yl}amino)azetidine-1-carboxylate]",14,11,13
"CO[C@@H](C)COc1cc(OC2CN(C(=O)NCCN(C)C)C2)c2cc(C3CC3)c(-c3c(C)c(F)cc4[nH]ncc34)c(OCc3ccc(-c4cn([C@H](C(=O)N5C[C@H](O)C[C@H]5C(=O)N[C@@H](CO)c5ccc(-n6cncn6)cc5)C(C)C)nn4)cc3)c2n1 (atropisomer, axis not shown; (M)) [Example 12, (4R)-1-[(2S)-2-(4-{4-[({(7M)-6-cyclopropyl-4-[(1-{[2-(dimethylamino)ethyl]carbamoyl}azetidin-3-yl)oxy]-7-(6-fluoro-5-methyl-1H-indazol-4-yl)-2-[(2S)-2-methoxypropoxy]quinolin-8-yl}oxy)methyl]phenyl}-1H-1,2,3-triazol-1-yl)-3-methylbutanoyl]-4-hydroxy-N-{(1R)-2-hydroxy-1-[4-(1H-1,2,4-triazol-1-yl)phenyl]ethyl}-L-prolinamide]",18,17,20
"CO[C@@H](C)COc1cc(OC2CN(C(=O)O[C@H]3C[C@@H](N(C)C)C3)C2)c2cc(C3CC3)c(-c3c(C)c(F)cc4[nH]ncc34)c(OCc3ccc(-c4cn([C@H](C(=O)N5C[C@H](O)C[C@H]5C(=O)N[C@@H](CO)c5ccc(-n6cncn6)cc5)C(C)C)nn4)cc3)c2n1 (atropisomer, axis not shown; (M)) [Example 13, (1s,3R)-3-(dimethylamino)cyclobutyl 3-({(7M)-6-cyclopropyl-7-(6-fluoro-5-methyl-1H-indazol-4-yl)-8-{[4-(1-{(2S)-1-[(2S,4R)-4-hydroxy-2-({(1R)-2-hydroxy-1-[4-(1H-1,2,4-triazol-1-yl)phenyl]ethyl}carbamoyl)pyrrolidin-1-yl]-3-methyl-1-oxobutan-2-yl}-1H-1,2,3-triazol-4-yl)phenyl]methoxy}-2-[(2S)-2-methoxypropoxy]quinolin-4-yl}oxy)azetidine-1-carboxylate]",9,18,13
